According to ChEMBL document CHEMBL4673397, “Dihydroorotate Dehydrogenase Inhibitors for Treating Acute Myelogenous Leukemia (AML)” (ACS Med Chem Lett, 2021):

Columns and labels:
MOLM-13 = test: Antiproliferative activity against human MOLM-13 cells assessed as reduction in cell viability measured after 72 hrs by Celltiter-Glo assay; format: functional, cell-based; settings: MOLM-13, 72 h
[1] = target: Dihydroorotate dehydrogenase (quinone), mitochondrial (Homo sapiens, UniProt Q02127); test: Inhibition of human DHODH (30 to 390 residues) expressed in Escherichia coli using dihydroorotate as substrate and CoQ10 as co-substrate by DCIP dye based spectrophotometry analysis
Sequence of Dihydroorotate dehydrogenase (quinone), mitochondrial (Q02127 whole entry, the tested form may be a part): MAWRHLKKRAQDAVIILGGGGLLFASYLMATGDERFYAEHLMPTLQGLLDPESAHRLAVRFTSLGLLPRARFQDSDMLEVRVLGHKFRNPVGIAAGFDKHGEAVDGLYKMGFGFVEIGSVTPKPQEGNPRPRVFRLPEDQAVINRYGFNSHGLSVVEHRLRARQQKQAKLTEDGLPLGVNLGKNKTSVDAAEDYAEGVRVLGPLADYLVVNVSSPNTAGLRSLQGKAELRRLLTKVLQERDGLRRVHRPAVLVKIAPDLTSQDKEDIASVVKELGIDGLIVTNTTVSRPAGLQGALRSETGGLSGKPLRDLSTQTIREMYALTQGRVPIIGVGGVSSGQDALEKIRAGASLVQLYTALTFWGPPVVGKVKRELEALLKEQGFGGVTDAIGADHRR

CCn1c(CO)nn(-c2cc3c(C(C)C)cn(-c4c(F)cccc4Cl)c(=O)c3cc2F)c1=O
IC50 (MOLM-13): 0.2 nM

CCn1c(CO)nn(-c2cc3c(C(C)C)cn(-c4ccccc4C)c(=O)c3cc2F)c1=O
IC50 (MOLM-13): 0.2 nM

C=C(C)c1cn(-c2c(F)cccc2Cl)c(=O)c2cc(F)c(-n3nc(CO)n(CC)c3=O)cc12
IC50 (MOLM-13): 0.1 nM

C=C(C)c1cn(-c2cc(F)ccc2C)c(=O)c2cc(F)c(-n3nc(CO)n(CC)c3=O)cc12
IC50 (MOLM-13): 0.09 nM

C=C(C)c1cn(-c2c(F)ccc(OC)c2Cl)c(=O)c2cc(F)c(-n3nc(CO)n(CC)c3=O)cc12
IC50 (MOLM-13): 0.1 nM

C=C(C)c1cn(-c2ccccc2F)c(=O)c2cc(F)c(-n3nc(CO)n(CC)c3=O)cc12
IC50 [1]: < 0.169 nM | IC50 (MOLM-13): 0.3 nM
